Measurements: patent publication US20150274777A1, “KETOAMIDE IMMUNOPROTEASOME INHIBITORS” (HOFFMANN-LA ROCHE INC., priority 2012, published 2015)

What was measured:
β1c = molecular target: T1, β1c (Homo sapiens, UniProt P28072+Q99436); experiment: Cell-Based Proteasome Activity/Selectivity Assay (Ramos cells), substrate (LLE)2 Rh110; details: highest concentration tested 20 μM
T1 construct: protease activity associated with the proteasome complex in cultured cells; endogenous in cells; host or cells: Ramos cells
Method in brief: (§1)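 Ramos cells (5×10^4/well in DPBS) were treated with 4-fold compound dilutions (top 20 μM) for 30 min at 37 °C. A 2× mix of 0.025% digitonin, 20 μM of each Rh110 substrate and 0.5 M sucrose was added, then incubated 120 min at room temperature. Rh110 fluorescence was read at 500/519 nm.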

β1i = molecular target: T2, β1i (Homo sapiens, UniProt P28065+P40306); experiment: Cell-Based Proteasome Activity/Selectivity Assay (Ramos cells), substrate (PAL)2Rh110; details: highest concentration tested 20 μM
T2 construct: protease activity associated with the proteasome complex in cultured cells; endogenous in cells; host or cells: Ramos cells
Method in brief: as §1

[1] = test system: IP10 level in PBMCs stimulated with CpG Type A; experiment: PBMC IP-10 Assay; format: cell-based; details: CpG Type A 2.5 μM
Method in brief: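 Human PBMCs (~2×10^5/well) preincubated 60 min at 37° C. with titrated compound (1% DMSO final), then stimulated with CpG Type A (ODN 2216) at 2.5 μM final overnight. Supernatant IP-10 quantified by AlphaLISA; viability of remaining cells by ATP luminescence.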

β2c/2i = experiment: Cell-Based Proteasome Activity/Selectivity Assay (Ramos cells), substrate (KQL)2Rh110; details: highest concentration tested 20 μM
Method in brief: as §1

β5i = molecular target: T3, β5i (Homo sapiens, UniProt P20618+P28062); experiment: Cell-Based Proteasome Activity/Selectivity Assay (Ramos cells), substrate (ANW)2Rh110; details: highest concentration tested 20 μM, read-out: Ic50 ramos:ac-(anw)2-r110
T3 construct: protease activity associated with the proteasome complex in cultured cells; endogenous in cells; host or cells: Ramos cells
Method in brief: as §1

β5c = molecular target: T4, β5c (Homo sapiens, UniProt P20618+P28074); experiment: Cell-Based Proteasome Activity/Selectivity Assay (Ramos cells), substrate (WLA)2Rh110; details: highest concentration tested 20 μM
T4 construct: protease activity associated with the proteasome complex in cultured cells; endogenous in cells; host or cells: Ramos cells
Method in brief: as §1

[2] = test system: mouse CAIA and CIA arthritis models; details: cited from earlier work
[3] = test system: DSS-induced colitis model; details: DSS-induced colitis model in mice; cited from earlier work
[4] = test system: MRL/lpr lupus-prone mice model; details: cited from earlier work

| SMILES | IC50 (β1c) [nM] | IC50 (β1i) [nM] | EC50 [1] [nM] | IC50 (β2c/2i) [nM] | IC50 (β5i) [nM] | IC50 (β5c) [nM] | disease score [2] | inflammation and tissue destruction [3] | disease progression [4] | plasma cells numbers and levels of anti-dsDNA IgG [4] |
| --- | --- | --- | --- | --- | --- | --- | --- | --- | --- | --- |
| C[C@H](NC(=O)c1cc2ccccc2n1C)C(=O)N[C@@H](Cc1ccccc1)C(=O)N[C@@H](Cc1ccccc1)C(=O)C(=O)NCc1ccccc1 [Example 44, 1-Methyl-1H-indole-2-carboxylic acid {(S)-1-[(S)-1-((S)-1-benzyl-2-benzylcarbamoyl-2-oxo-ethylcarbamoyl)-2-phenyl-ethylcarbamoyl]-ethyl}-amide] | > 20000 | 13100 | 596 | > 20000 | 13 | 1240 | – | – | – | – |
| COc1ccc(C[C@H](NC(=O)[C@H](C)NC(=O)c2cc3ncccc3n2C)C(=O)N[C@@H](Cc2ccccc2)C(=O)C(=O)NCc2ccccc2)cc1 [Example 45] | 6380 | 496 | 1320 | > 20000 | 13 | 250 | – | – | – | – |
| COc1ccc(C[C@H](NC(=O)[C@H](C)NC(=O)CN2CCOCC2)C(=O)N[C@@H](Cc2ccccc2)C(=O)C(=O)NCc2ccccc2)cc1 [Example 46, (S)—N-Benzyl-3-{(S)-3-(4-methoxy-phenyl)-2-[(S)-2-(2-morpholin-4-yl-acetylamino)-propionylamino]-propionylamino}-2-oxo-4-phenyl-butyramide] | > 20000 | 2170 | 5780 | > 20000 | 121 | 4410 | – | – | – | – |
| Cc1cc(C(=O)N[C@@H](C)C(=O)N[C@@H](Cc2c[nH]c3ccccc23)C(=O)N[C@@H](Cc2ccccc2)C(=O)C(=O)NCc2ccccc2)no1 [Example 47, 5-Methyl-isoxazole-3-carboxylic acid {(S)-1-[(S)-1-((S)-1-benzyl-2-benzylcarbamoyl-2-oxo-ethylcarbamoyl)-2-(1H-indol-3-yl)-ethylcarbamoyl]-ethyl}-amide] | 6270 | 705 | 2290 | > 20000 | 34 | 1390 | – | – | – | – |
| CC1=C(C(=O)N[C@@H](C)C(=O)N[C@@H](Cc2c[nH]c3ccccc23)C(=O)N[C@@H](Cc2ccccc2)C(=O)C(=O)NCc2ccccc2)Cc2ccccc21 [Example 48, 3-Methyl-1H-indene-2-carboxylic acid {(S)-1-[(S)-1-((S)-1-benzyl-2-benzylcarbamoyl-2-oxo-ethylcarbamoyl)-2-(1H-indol-3-yl)-ethylcarbamoyl]-ethyl}-amide] | 13600 | 1170 | 615 | > 20000 | 8 | 1010 | – | – | – | – |
| COc1ccc(C[C@H](NC(=O)[C@H](C)NC(=O)c2cn3ccccc3n2)C(=O)N[C@@H](Cc2ccccc2)C(=O)C(=O)NCc2ccccc2)cc1 [Example 49, Imidazo[1,2-a]pyridine-2-carboxylic acid {(S)-1-[(S)-1-((S)-1-benzyl-2-benzylcarbamoyl-2-oxo-ethylcarbamoyl)-2-(4-methoxy-phenyl)-ethylcarbamoyl]-ethyl}-amide] | 17500 | 499 | 4370 | > 20000 | 105 | 1930 | – | – | – | – |
| C[C@H](NC(=O)OCc1ccccc1)C(=O)N[C@@H](Cc1ccccn1)C(=O)N[C@@H](Cc1ccccc1)C(=O)C(=O)NCc1ccccc1 [Example 50, {(S)-1-[(S)-1-((S)-1-Benzyl-2-benzylcarbamoyl-2-oxo-ethylcarbamoyl)-2-pyridin-2-yl-ethylcarbamoyl]-ethyl}-carbamic acid benzyl ester] | > 20000 | 1280 | 2740 | > 20000 | 266 | 2890 | – | – | – | – |
| C[C@H](NC(=O)OCc1ccccc1)C(=O)N[C@@H](Cc1ccc(Cl)cc1)C(=O)N[C@@H](Cc1ccccc1)C(=O)C(=O)NCc1ccccc1 [Example 51, {(S)-1-[(S)-1-((S)-1-Benzyl-2-benzylcarbamoyl-2-oxo-ethylcarbamoyl)-2-(4-chloro-phenyl)-ethylcarbamoyl]-ethyl}-carbamic acid benzyl ester] | > 20000 | 9840 | 2590 | > 20000 | 21 | 5180 | – | – | – | – |
| C[C@H](NC(=O)N1Cc2ccccc2C1)C(=O)N[C@@H](Cc1ccccc1)C(=O)N[C@@H](Cc1ccccc1)C(=O)C(=O)NCc1ccccc1 [Example 52, 1,3-Dihydro-isoindole-2-carboxylic acid {(S)-1-[(S)-1-((S)-1-benzyl-2-benzylcarbamoyl-2-oxo-ethylcarbamoyl)-2-phenyl-ethylcarbamoyl]-ethyl}-amide] | 10300 | 1530 | 4500 | > 20000 | 221 | 2350 | – | – | – | – |
| Cc1cc(C(=O)N[C@@H](C)C(=O)N[C@@H](Cc2ccccc2)C(=O)N[C@@H](Cc2ccccc2)C(=O)C(=O)NCc2ccccc2)n(C)n1 [Example 53, 2,5-Dimethyl-2H-pyrazole-3-carboxylic acid {(S)-1-[(S)-1-((S)-1-benzyl-2-benzylcarbamoyl-2-oxo-ethylcarbamoyl)-2-phenyl-ethylcarbamoyl]-ethyl}-amide] | > 20000 | 1780 | 4900 | > 20000 | 221 | 1360 | – | – | – | – |
| CCn1nccc1C(=O)N[C@@H](C)C(=O)N[C@@H](Cc1ccccc1)C(=O)N[C@@H](Cc1ccccc1)C(=O)C(=O)NCc1ccccc1 [Example 54, 2-Ethyl-2H-pyrazole-3-carboxylic acid {(S)-1-[(S)-1-((S)-1-benzyl-2-benzylcarbamoyl-2-oxo-ethylcarbamoyl)-2-phenyl-ethylcarbamoyl]-ethyl}-amide] | 18500 | 609 | 3450 | > 20000 | 66 | 1680 | – | – | – | – |
| C[C@H](NC(=O)c1cc(C(F)(F)F)nn1C)C(=O)N[C@@H](Cc1ccccc1)C(=O)N[C@@H](Cc1ccccc1)C(=O)C(=O)NCc1ccccc1 [Example 55, 2-Methyl-5-trifluoromethyl-2H-pyrazole-3-carboxylic acid {(S)-1-[(S)-1-((S)-1-benzyl-2-benzylcarbamoyl-2-oxo-ethylcarbamoyl)-2-phenyl-ethylcarbamoyl]-ethyl}-amide] | > 20000 | 8920 | 3880 | > 20000 | 176 | 5770 | – | – | – | – |
| C[C@H](NC(=O)OCc1ccccc1)C(=O)NC(CC1CCOCC1)C(=O)N[C@@H](Cc1ccccc1)C(=O)C(=O)NCc1ccccc1 (stereo partly drawn) [Example 56, {(S)-1-[1-((S)-1-Benzyl-2-benzylcarbamoyl-2-oxo-ethylcarbamoyl)-2-(tetrahydro-pyran-4-yl)-ethylcarbamoyl]-ethyl}-carbamic acid benzyl ester] | > 20000 | 879 | 3230 | > 20000 | 115 | 3120 | – | – | – | – |
| C[C@H](NC(=O)OCc1ccccc1)C(=O)NC(CC(F)(F)F)C(=O)N[C@@H](Cc1ccccc1)C(=O)C(=O)NCc1ccccc1 (stereo partly drawn) [Example 57, {(S)-1-[1-((S)-1-Benzyl-2-benzylcarbamoyl-2-oxo-ethylcarbamoyl)-3,3,3-trifluoro-propylcarbamoyl]-ethyl}-carbamic acid benzyl ester] | > 20000 | 2730 | 5030 | > 20000 | 524 | 6160 | – | – | – | – |
| C[C@H](NC(=O)OCc1ccccc1)C(=O)N[C@@H](Cc1ccncc1)C(=O)N[C@@H](Cc1ccccc1)C(=O)C(=O)NCc1ccccc1 [Example 58, {(S)-1-[(S)-1-((S)-1-Benzyl-2-benzylcarbamoyl-2-oxo-ethylcarbamoyl)-2-pyridin-4-yl-ethylcarbamoyl]-ethyl}-carbamic acid benzyl ester] | > 20000 | 478 | 1330 | > 20000 | 30 | 960 | – | – | – | – |
| COc1ccc(C[C@H](NC(=O)[C@H](C)NC(=O)C2Cc3ccccc3C2)C(=O)NC2(C(=O)C(=O)NCc3ccccc3)Cc3ccccc3C2)cc1 [Example 59, Indan-2-carboxylic acid {(S)-1-[(S)-1-(2-benzylaminooxalyl-indan-2-ylcarbamoyl)-2-(4-methoxy-phenyl)-ethylcarbamoyl]-ethyl}-amide] | > 20000 | > 20000 | 11700 | > 20000 | 89 | 1360 | – | – | – | – |
| COc1ccc(C[C@H](NC(=O)[C@H](C)NC(=O)CN2CCOCC2)C(=O)N[C@@H](Cc2ccccc2)C(=O)[C@@]2(C)CO2)cc1 [PR-957] | – | – | – | – | – | – | significantly decreased | reduced | prevented | reduced |
